Data reported in patent publication US20250040539A1, “COMPOSITION COMPRISING AN ANTIMICROBIAL AGENT AND A CARBOXAMIDE” (BASF SE, priority 2021, published 2025).

Tests used:
Type in all cases: cell-based
[1] = system: bacterial mix: Escherichia coli DSM 1576, Alcaligenes faecalis DSM 13644, Pseudomonas aeruginosa ATCC 15442, Staphylococcus aureus ATCC 6538, Burkholderia …; test: Preservative activity of a basic composition (10% PG in water, pH 7) with 1,2-benzisothiazol-3(2H)-one (BIT) against bacterial contamination (Example 2.3); conditions: 10% PG + 0.004% BIT, no amide (Comparative 2); day 7
Method: (§1) An aqueous composition of pH 7 comprising 10% by weight of propyleneglycol (PG) as organic solvent, 0.004% by weight of 1,2-benzisothiazol-3(2H)-one (BIT) as antimicrobial and 0.04% by weight of the amide listed in the below table was tested for its preserving activity against bacterial contamination (the percentages are weight percent and relate to the total weight of the composition). For this purpose, the samples were contaminated with a bacterial mix consisting of: • Escherichia coli DSM 1576 • Alcaligenes faecalis DSM 13644 • Pseudomonas aeruginosa ATCC 15442 • Staphylococcus aureus ATCC 6538 • Burkholderia cepacia DSM 7288 • Pseudomonas putida DSM 12735
(§2) The samples were inoculated with the bacterial mix at day 0 to obtain 10E+06 to 10E+07 CFU/ml inoculation in the test sample and stored at 25° C. for 7 days.
(§3) CFU was determined at day 7.
Any CFU value at day 7 (d7) obtained with a sample according to the invention containing BIT and amide (10% PG+0.004% BIT+Amide in water) lower than the respective value of the “comparative 2” example (10% by weight of propyleneglycol+0.004% by weight of 1,2-benzisothiazol-3(2H)-one (BIT) in water) indicates a better performance.

[2] = system: bacterial mix: Escherichia coli DSM 1576, Alcaligenes faecalis DSM 13644, Pseudomonas aeruginosa ATCC 15442, Staphylococcus aureus ATCC 6538, Burkholderia …; test: Preservative activity in a manual dishwashing composition (MDW, pH 7.1) with 1.0% 2-phenoxyethanol against bacterial mix (Example 2.5); conditions: MDW + 1.0% PE + 1.0% amide
Method: A manual dish wash detergent (MOW) of pH 7.1 containing the following components was used:
The samples were contaminated with a bacterial mix consisting of: • Escherichia coli DSM 1576 • Alcaligenes faecalis DSM 13644 • Pseudomonas aeruginosa ATCC 15442 • Staphylococcus aureus ATCC 6538 • Burkholderia cepacia DSM 7288 • Pseudomonas putida DSM 12735
The samples were inoculated with the bacterial mix at day 0 and 7 to obtain 10E+06 to 10E+07 CFU/ml inoculation in the test sample and stored at 25° C. for 21 days. CFU was determined before re-inoculation at day 7 and on day 21.
Any CFU value at day 7 (d7) or day 21 (d21) obtained with a sample according to the invention containing 2-phenoxyethanol and amide (MDW+1.0% PE+1.0% Amide) lower than the respective value of the comparative example (MDW+1% by weight of 2-phenoxyethanol) indicates a better performance.

[3] = system: fungal mix (including yeasts and molds): Aspergillus brasiliensis DSM 1988, Rhodotorula mucilaginosa DSM 13621, Yarrowia lipolytica DSM 8218; test: Preservative activity of a basic composition (10% PG in water, pH 7) with 2-phenoxyethanol against fungal contamination (Example 1.1); conditions: 10% PG + 0.36% PE + 0.04% Amide in water, pH 7, 25° C.
Method: An aqueous composition of pH 7 comprising 10% by weight of propyleneglycol (PG) as organic solvent, 0.36% by weight of 2-phenoxyethanol (PE) as antimicrobial and 0.04% by weight of the amide listed in the below table was tested for its preserving activity against fungal contamination (the percentages are weight percent and relate to the total weight of the composition). For this purpose, the samples were contaminated with a fungal mix (including yeasts and molds) consisting of: • Aspergillus brasiliensis DS M 1988 • Rhodotorula mucilaginosa DSM 13621 • Yarrowia lipolytica DS M 8218
To control the efficacy, following control compositions were tested: • “Reference”, consisting of only 10% by weight of propylene glycol in water • “Comparative 1” containing 10% by weight of propylene glycol and amide in the given concentration, but no 2-phenoxyethanol • […] in the given concentration, but no amide.
The samples were inoculated with the fungal mix at day 0, 7 and 14 to obtain a cell density in the range of 1-3×10E+05 CFU/ml (CFU=colony forming units) in the test samples (compositions listed in the below table) and stored at 25° C. for 21 days.
(§4) CFU was determined before re-inoculation at days 7 and 14, and on day 21.

[4] = system: fungal mix: Aspergillus brasiliensis DSM 1988, Rhodotorula mucilaginosa DSM 13621, Yarrowia lipolytica DSM 8218; test: Preservative activity in a manual dishwashing composition (MDW, pH 7.1) with 1.0% 2-phenoxyethanol against fungal mix (Example 1.2); conditions: MDW + 1.0% PE + 1.0% amide
Method: A manual dish wash detergent (MDW) of pH 7.1 containing the following components was used:
The samples were contaminated with a fungal mix consisting of: • Aspergillus brasiliensis DSM 1988 • Rhodotorula mucilaginosa DSM 13621 • Yarrowia lipolytica DSM 8218
The samples were inoculated with the fungal mix at day 0 and 7 to obtain 1-3×10E+05 CFU/ml inoculation in the test sample consisting of the above-defined dish wash detergent MDW and stored at 25° C. for 21 days. CFU was determined before re-inoculation at day 7, and on days 14 and 21.
Any CFU value at d7, d14 or d21 obtained with a MDW sample of the invention containing 2-phenoxyethanol and amide (MDW+1.0% PE+x % of Amide) lower than the respective value of the comparative example (MDW+1.0% by weight of 2-phenoxyethanol) indicates a better performance of the inventive combination of 2-phenoxyethanol with the amide.

[5] = system: bacterial mix: Escherichia coli DSM 1576, Alcaligenes faecalis DSM 13644, Pseudomonas aeuginosa ATCC 15442, Staphylococcus aureus ATCC 6538, Burkholderia …; test: Preservative activity of a basic composition (10% PG in water, pH 7) with 2-phenoxyethanol against bacterial contamination (Example 2.1); conditions: 10% PG + 0.36% PE + 0.04% amide
Method: as §1, with “0.36%” for “0.004%”, “2-phenoxyethanol (PE)” for “1,2-benzisothiazol-3(2H)-one (BIT)”, “(the weight” for “(the”, “percentages” for “percentages are weight percent and”, “aeuginosa” for “aeruginosa”
The samples were inoculated with the bacterial mix at day 0, 7 and 14 to obtain 10E+06 to 10E+07 CFU/ml inoculation in the test samples (compositions listed in the below table) consisting of 10% by weight of propylene glycol in water and stored at 25° C. for 21 days.
as §4

[6] = system: bacterial mix: Escherichia coli DSM 1576, Alcaligenes faecalis DSM 13644, Pseudomonas aeruginosa ATCC 15442, Staphylococcus aureus ATCC 6538, Burkholderia …; test: Preservative activity of a basic composition (10% PG in water, pH 7) with 4,4'-dichloro-2-hydroxydiphenyl ether (diclosan) against bacterial contamination (Example 2.2); conditions: day 7
Method: as §1, with “0.015%” for “0.004%”, “4,4′-dichloro-2-hydroxydiphenyl ether (diclosan)” for “1,2-benzisothiazol-3(2H)-one (BIT)”, “0.04 or 0.1%” for “0.04%”, “amides” for “amide”, “(the weight” for “(the”, “percentages” for “percentages are weight percent and”
as §2, §3
Any CFU value at day 7 (d7) obtained with a sample according to the invention containing diclosan and amide (10% PG+0.015% diclosan+Amide in water) lower than the respective value of the “comparative 3” example (10% by weight of propyleneglycol+0.015% by weight of 4,4′-dichloro-2-hydroxydiphenyl ether (diclosan) in water) indicates a better performance.

O=c1[nH]sc2ccccc12 [BIT, 1,2-benzisothiazol-3(2H)-one, reference compound]
d7 [CFU/ml] [1]: >100,000 CFU/ml

C=CCCCCCCCC(=O)N(C)C [N,N-dimethyl 9-decenoylamide]
d7 [CFU/ml] ([2]; day 7): <10 CFU/ml | d21 [CFU/ml] ([2]; day 21): <10 CFU/ml

CCCCCCCCCC(=O)N1CCOCC1 [n-Decanoyl-morpholine]
d7 [CFU/ml] ([3]; fungal mix inoculated at day 0, 7 and 14 (1-3x10E+05 CFU/ml), day 7 before re-inoculation): 55 CFU/ml | d14 [CFU/ml] ([3]; fungal mix inoculated at day 0, 7 and 14, day 14 before re-inoculation): <10 CFU/ml | d21 [CFU/ml] ([3]; fungal mix inoculated at day 0, 7 and 14, day 21): 35 CFU/ml | d7 [CFU/ml] ([4]; day 7): 1,200 CFU/ml | d14 [CFU/ml] ([4]; day 14): 305 CFU/ml | d21 [CFU/ml] ([4]; day 21): 245 CFU/ml | d7 [CFU/ml] ([5]; day 7): <10 CFU/ml | d14 [CFU/ml] ([5]; day 14): 30 CFU/ml | d21 [CFU/ml] ([5]; day 21): 190 CFU/ml | d7 [CFU/ml] ([6]; 10% PG + 0.015% diclosan + 0.04% amide): 41,500 CFU/ml | d7 [CFU/ml] ([6]; 10% PG + 0.04% amide, no diclosan (Comparative 1a)): >100,000 CFU/ml
